In US20110038804A1, “MR IMAGING AGENT, IMAGING MEDIUM AND METHODS OF IMAGING WHEREIN SUCH AN IMAGING MEDIUM IS USED” (priority 2007, published 2011):

What was measured:
[1] = system: subcutaneous mouse lymphoma (EL-4); assay type: in vivo
Experimental: EL-4 cells were injected into a C57Bl/6 mouse to generate a subcutaneous mouse lymphoma. 175 μl of an imaging medium comprising hyperpolarised sodium ^13C1-α-ketoisocaproate which was prepared as described in Example 2 was injected into the mouse over a time period of 6 s. The sodium ^13Ci-α-ketoisocaproate concentration in said imaging medium was about 50 mM. A 20 mm surface coil (tuned for carbon) was positioned over the subcutaneous tumour and signals of ^13C-α-ketoisocaproate and ^13C-leucine were detected by ^13C-MR spectroscopy which was carried out using a 2.4 T Bruker spectrometer to generate a metabolic profile of the tumour and the surrounding healthy tissue. A ^13C-chemical shift image was acquired with the following parameters: FOV 35×35 mm^2×10 mm, matrix size 16×16, 10 degree RF pulse, TR=35 ms. Total acquisition time was 11 seconds (die to triggering on breathing) and the chemical shift imaging started 15 seconds after the start of the injection of the imaging medium. Omniscan™ (GE Healthcare)—enhanced proton imaging was performed to confirm the tumour position and perfusion.

[2] = system: mouse liver; test: In vivo 13C-MR spectroscopy with surface coil over the liver in a mouse; set-up: species or system C57Bl/6 mouse; details: 175 μl of about 50 mM imaging medium injected over 6 s; liver region, 2.4 T, 10 spectra, repetition time 5 s
Experimental: 175 μl of an imaging medium comprising hyperpolarised sodium ^13C1-α-ketoisocaproate which was prepared as described in Example 1 was injected into a C57Bl/6 mouse over a time period of 6 s. The sodium ^13C1-α-ketoisocaproate concentration in said imaging medium was about 50 mM. A 12 mm surface coil (tuned for carbon) was positioned over the mouse to cover the liver region and signals of ^13C-α-ketoisocaproate and ^13C-leucine were detected by ^13C-MR spectroscopy which was carried out in a 2.4 T Bruker spectrometer to generate a metabolic profile. A total of 10 ^13C-spectra were acquired with a repetition time of 5 s and 30 degree RF pulses. In this Example, the ^13C-leucine signal is approximately 1% of the ^13C-α-ketoisocaproate signal.

[3] = Tolerability in the animal models used; assay type: in vivo; details: animal models of the Examples (mouse, rat)
Experimental: In another preferred embodiment, the imaging medium comprising hyperpolarised ^13C-α-ketoisocaproate is administered repeatedly, thus allowing dynamic studies.

[4] = 175 μl of about 50 mM imaging medium, chemical shift imaging started 15 s after start of injection, 2.4 T

Row | Compound | 13C-leucine distribution [1, 4] | 13C-α-ketoisocaproate signal distribution [1, 4] | ratio image (13C-leucine to 13C-α-ketoisocaproate) ([1]; confirmed by Omniscan-enhanced proton image) | 13C-leucine signal as share of the 13C-α-ketoisocaproate signal [2] | tolerability [3]
1 | CC(C)CC(=O)[13C](=O)[O-].[Na+] [sodium ^13C1-α-ketoisocaproate] | confined to the tumour area | the highest in the large blood vessels | defines the tumour area | approximately 1% | 
2 | ^13C-α-ketoisocaproate [hyperpolarised ^13C-α-ketoisocaproate] |  |  |  |  | well tolerated
